Laboratory results taken from US12281125B2, “Rapamycin derivatives” (NOVARTIS AG, priority 2018, dated 2025).
pKd: −log10 of the molar value.

Legend:
[1] = target: T1, FKBP12-rapalog-mTOR (amino acids 2019-2112) ternary complex (Homo sapiens, UniProt P42345+P62942); assay: SPR ternary complex formation, rapalog bound to FKBP12 with mTOR; assay type: binding; settings: rapalog bound to FKBP with mTOR, read-out: FKBP12 apparent affinity KD for ternary complex formation
T1 construct: his^6-mTOR (amino acids 2019-2112) was diluted in buffer; made in house; host or cells: E. coli
Method: (§1) N-terminal avi-his6-tagged FKBP fusion proteins were expressed in E. coli and purified with nickel chromatography using standard procedures. Biotinylated his-avi-FKBPs were immobilized on a streptavidin chip using a Biacore 8K (GE Healthcare). To determine the kinetics-affinity of the rapalogs for FKBPs, rapalogs were diluted in DMSO to 50× working concentration. Next, 3.1 uLs of each rapalog solution was added to 150 uLs of buffer (50 mM Tris pH 7.5/150 mM NaCl/0.01% Tween 20/1 mM DTT) in a 384 deep well plate (greiner bio-one/78127) and mixed using a Biomek FX. The rapalog solution gradients (6 concentrations/2 fold dilutions, 3.1-100 nM or 31-1000 nM or 310-10000 nM) were then injected at 45 uL/min for 120 seconds: contact time and dissociation time was 1800 seconds in running buffer (50 mM Tris pH 7.5/150 mM NaCl/0.01% Tween 20/1 mM DTT/2% DMSO). The single-cycle kinetics data were fit to a 1:1 binding model to measure the association rate ka (1/Ms), the dissociation rate kd (1/s) and the affinity KD (M). […] 3.1 uLs of the 500 μM rapalog solutions were added to 150 uLs of the mTOR samples in a 384 deep well plate (greiner bio-one/78127) and mixed using a Biomek FX. The mTOR solution gradients were then injected at 45 uL/min for 120 seconds: contact time and dissociation time was 1800 seconds in running buffer (50 mM Tris pH 7.5/150 mM NaCl/0.01% Tween 20/1 mM DTT/2% DMSO). […]

[2] = test system: mTORC1 activity, S6K1 (Thr389) in FKBP12 knock-out 293T cells; assay: S6K1(Thr389) phosphorylation ELISA in FKBP12 knock-out 293T cells; assay type: cell-based; settings: 2 hours
From the text: (§2) A CRISPR/Cas9 system was used to deliver ribonucleoprotein complexes containing guide RNA (gRNA) sequences that target FKBP12
(§3) ([…], location 35620248) into 293T cells, using the Amaxa® 4D-Nucleofector™ X Kit (Lonza, V4XC-2032). Cell clones were screened by immunoblotting with anti-FKBP-specific antibodies: FKBP12 (Novus, NB300-508), FKBP12.6 (Abnova, H00002281-M01), FKBP13 (R&D Systems, MAB4356), FKBP25 (R&D Systems, MAB3955), FKBP52 (Cell signaling Technology, #11826) and FKBP51 (Cell signaling Technology, #12210). […] Quintuple FKBP12/12.6/13/52/51 knock-out and FKBP12/12.6/25/52/51 knock-out cells were generated by sequentially knocking out five FKBP genes.
(§4) WT, FKBP12 knock-out, FKBP12/12.6/13/52/51 knock-out or FKBP12/12.6/25/52/51 knock-out 293T cells were plated at a density of 30,000 cells per well in poly-D-Lysine coated 96-well plates (Corning, #354461) in Dulbecco's modified Eagle's medium (ThermoFisher, #11995-065) supplemented with 10% fetal bovine serum (ThermoFisher, #16140-071). Cells were incubated at 37° C., 5% CO2 for 48 hours until they reached ˜80% confluence. […] Media supplemented with blank Dimethyl sulfoxide (DMSO) was used as a control for both compounds. Phosphorylated amounts of S6K1 (Thr389) were detected by a sandwich ELISA kit (Cell signaling, #7063C) following the manufacture's protocol.

[3] = test system: mTORC1 activity, S6K1 (Thr389) in FKBP12/12.6/25/52/51 knock-out 293T cells; assay: S6K1(Thr389) phosphorylation ELISA in FKBP12/12.6/25/52/51 knock-out 293T cells; assay type: cell-based
From the text: as §2, §3, §4

[4] = target: T2, FKBP51-rapalog-mTOR (amino acids 2019-2112) ternary complex (Homo sapiens, UniProt P42345+Q13451); assay: SPR ternary complex formation, rapalog bound to FKBP51 with mTOR; assay type: binding; settings: rapalog bound to FKBP with mTOR, read-out: FKBP51 apparent affinity KD for ternary complex formation
T2 construct: his^6-mTOR (amino acids 2019-2112) was diluted in buffer; made in house; host or cells: E. coli
Method: as §1

FKBP51 = target: T3, FKBP51 (Homo sapiens, UniProt Q13451); assay: SPR assay, binding affinity to FKBP51; settings: equilibrium dissociation constant
T3 construct: made in house; host or cells: E. coli
T3 sequence (Q13451 1-457): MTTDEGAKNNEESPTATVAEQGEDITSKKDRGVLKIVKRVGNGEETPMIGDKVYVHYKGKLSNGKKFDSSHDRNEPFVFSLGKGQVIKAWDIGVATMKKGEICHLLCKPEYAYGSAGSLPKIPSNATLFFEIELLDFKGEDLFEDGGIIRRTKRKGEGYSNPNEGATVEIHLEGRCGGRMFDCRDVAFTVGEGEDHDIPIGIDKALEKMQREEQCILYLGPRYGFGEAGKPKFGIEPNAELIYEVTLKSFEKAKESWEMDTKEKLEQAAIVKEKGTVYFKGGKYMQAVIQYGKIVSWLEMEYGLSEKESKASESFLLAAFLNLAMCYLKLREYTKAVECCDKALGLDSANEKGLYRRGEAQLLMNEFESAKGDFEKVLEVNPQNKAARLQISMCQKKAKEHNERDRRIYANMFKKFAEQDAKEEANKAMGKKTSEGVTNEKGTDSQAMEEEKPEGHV
From the text: N-terminal avi-his6-tagged FKBP fusion proteins were expressed in E. coli and purified with nickel chromatography using standard procedures. Biotinylated his-avi-FKBPs were immobilized on a streptavidin chip using a Biacore 8K (GE Healthcare). […] The single-cycle kinetics data were fit to a 1:1 binding model to measure the association rate ka (1/Ms), the dissociation rate kd (1/s) and the affinity KD (M). […] The single-cycle kinetics data was fit to a 1:1 binding model to measure the association rate ka (1/Ms), the dissociation rate kd (1/s) and the apparent affinity KD (M) for ternary complex formation. The equilibrium dissociation constants (KD) to FKBP12, FKBP51, and FKBP52 are shown below in Table 6.

[5] = test system: mTORC1 activity, S6K1 (Thr389) in FKBP12/12.6/13/52/51 knock-out 293T cells; assay: S6K1(Thr389) phosphorylation ELISA in FKBP12/12.6/13/52/51 knock-out 293T cells; assay type: cell-based
From the text: as §2, §3, §4

[6] = target: T4, FKBP25-rapalog-mTOR (amino acids 2019-2112) ternary complex (Homo sapiens, UniProt P42345+Q00688); assay: SPR ternary complex formation, rapalog bound to FKBP25 with mTOR; assay type: binding; settings: rapalog bound to FKBP with mTOR, read-out: FKBP25 apparent affinity KD for ternary complex formation
T4 construct: his^6-mTOR (amino acids 2019-2112) was diluted in buffer; made in house; host or cells: E. coli
Method: as §1

T2 sequence (P42345 2019-2112 limits assumed, one chain of several): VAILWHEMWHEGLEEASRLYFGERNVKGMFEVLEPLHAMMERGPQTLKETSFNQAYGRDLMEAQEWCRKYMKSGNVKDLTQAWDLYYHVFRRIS
T4 sequence (Q00688 whole entry, the tested form may be a part): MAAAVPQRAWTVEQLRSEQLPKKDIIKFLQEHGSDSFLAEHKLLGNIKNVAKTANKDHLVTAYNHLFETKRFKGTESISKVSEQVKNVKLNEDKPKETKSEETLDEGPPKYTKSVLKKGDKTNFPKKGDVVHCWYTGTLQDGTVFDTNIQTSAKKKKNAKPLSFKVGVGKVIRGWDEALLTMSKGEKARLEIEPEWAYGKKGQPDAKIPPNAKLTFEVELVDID
T4 sequence (P42345 2019-2112 limits assumed): as the sequence (P42345 2019-2112 limits assumed, one chain of several) above
T1 sequence (P62942 whole entry, the tested form may be a part): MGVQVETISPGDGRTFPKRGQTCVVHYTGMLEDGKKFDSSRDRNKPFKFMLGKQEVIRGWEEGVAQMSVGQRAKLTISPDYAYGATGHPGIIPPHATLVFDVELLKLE
T1 sequence (P42345 2019-2112 limits assumed): as the sequence (P42345 2019-2112 limits assumed, one chain of several) above

SMILES	pKd [1]	de-phosphorylation of S6K1(Thr389) [2] [%]	inhibitory effect (potency) on S6K1 (Thr389), in words [3]	pKd [4]	pKd (FKBP51)	inhibitory effect (potency) on S6K1 (Thr389), in words [5]	inhibition of S6K1 (Thr389) ([5]; at the highest tested concentration) [%]	pKd [6]
CO[C@@H]1C[C@H](C[C@@H](C)[C@@H]2CC[C@H](C)/C=C(\C)[C@@H](O)[C@@H](OC)C(=O)[C@H](C)C[C@H](C)/C=C/C=C/C=C(\C)[C@@H](NS(C)(=O)=O)C[C@@H]3CC[C@@H](C)[C@@](O)(O3)C(=O)C(=O)N3CCCC[C@H]3C(=O)O2)CC[C@H]1O [Compound 2]	7.60	~70	neither RAD001 nor Compound 2 were efficacious	7.28	6.84	efficacious in inhibiting S6K1 (Thr389)	~90	8.70
CO[C@H]1C[C@@H]2CC[C@@H](C)[C@@](O)(O2)C(=O)C(=O)N2CCCC[C@H]2C(=O)O[C@H]([C@H](C)C[C@@H]2CC[C@@H](OCCO)[C@H](OC)C2)CC(=O)[C@H](C)/C=C(\C)[C@@H](O)[C@@H](OC)C(=O)[C@H](C)C[C@H](C)/C=C/C=C/C=C/1C [RAD001, everolimus, reference compound]	7.68	~40	neither RAD001 nor Compound 2 were efficacious	6.46	6.09	lost almost all it potency		7.12
